Experiments:
Format in all cases: in vivo, mouse
[1] = I.C.V. fluorosamine in obese AgRP-Cas9 mice given AAV-gScrambled or AAV-gIR; conditions: 100 μg/animal I.C.V. daily for 10 days
Description: (§1) Metabolic measurements were undertaken in the Melbourne Mouse Metabolic Phenotyping Platform (The University of Melbourne, Australia). Glucose tolerance tests were performed on 6 h fasted conscious mice respectively by injecting D-glucose (2 mg/g of lean body mass and 1 mg/g lean mass for db/db and HFHS+STZ mice) into the peritoneal cavity and measuring glucose in tail blood immediately before and at 15, 30, 45, 60, 90 and 120 min after injection using an Accu-Check glucometer (Roche, Germany). The areas under glucose excursion curves were determined and expressed as mmol/1×min. Fasted (12 h fast) plasma insulin or glucose levels were determined using a Rat/Mouse Insulin ELISA (EZRMI-13K, Merck Millipore, CA) or an Accu-Check glucometer respectively. The HOMA-IR was calculated using the equation [(glucose×insulin)/405]. Adiposity was measured using TD-NMR minispec (Bruker Optics Inc., Billerica, MA).
Mice were acclimated for 24 h and then monitored for 48 h in an environmentally controlled Promethion Metabolic Screening System (Sable Systems International, NV) fitted with indirect open circuit calorimetry, food consumption and activity monitors to measure activity, caloric intake and energy expenditure. Respiratory quotients were calculated as the ratio of CO2 production over O2 consumption respiratory exchange ratio and energy expenditure was calculated using the Weir equation (Kcal h-1=60×(0.003941×VO2+0.001106×VCO2). To account for difference in body mass/composition energy expenditure was analysed and adjusted using ANCOVA using scripts available at the National Mouse Metabolic Phenotyping Centers (MMPC, Nashville, TN, USA) Energy Expenditure Analysis Page (https://www.mmpc.org/shared/regression.aspx).
Under isoflurane anaesthetic 12-week HFHS fed C57BL/6J or AgRP-Cas9 mice were implanted stereotaxically with guide cannulas into the right lateral ventricle (0.2 mm posterior, 1.0 mm lateral from bregma). Guide cannula was positioned 1.3 mm above the injection site (1 mm ventral to the surface of the skull). AgRP-Cas9 mice were treated with either AAV-gScrambled or AAV-gIR and underwent guide cannula placement 7 days post AAV administration. Mice were administered I.C.V. vehicle (ddH2O), fluorosamine (100 μg/animal/day or 250 μgl/animal/day) in a volume of 2 μl/animal and all compounds were delivered approximately 1 h before lights off […].

[2] = test system: insulin-induced p-AKT in the ARC; experiment: Intranasal PZ6005 in obese mice: insulin-induced p-AKT immunohistochemistry in the ARC; conditions: both doses I.N. (1 or 5 mg/animal/day), 14 days, after I.P. insulin
Description: (§2) Conscious mice were restrained by scruffing and inverted parallel to the floor with the chin at ˜180-degree angle with the neck. Using a 10 μL tip, a pipettor was loaded with 5 μl of vehicle (ddH2O) or fluorosamine (1 mg/animal in 20 μl or 5 mg/animal in 20 μl). The tip of the filled pipettor was placed near the left nostril at a 45-degree angle, and the drug was ejected to form a small 5 μl droplet at tip for the mouse to inhale. Immediately after the mouse inhaled the first droplet the remaining solution was ejected to form another small droplet for the mouse to inhale through the same nostril. The mouse was held in this position for 15 seconds before the procedure was repeated in the right nostril. The mouse was returned to the cage for 2 minutes and the process was repeated so that each mouse received four droplets of 5 μl each, delivering a total of 20 μl of solution. All drugs were administered delivered approximately 1 h before lights off […].

[3] = Intranasal PZ6005 in diet-induced obese mice: body weight, tissue mass and fat mass
Description: as §1, §2
Changes in body weight of 12-week-HFHS-diet-fed obese mice during 14 days of intranasal administration of either vehicle or PZ6005 (1 or 5 mg/animal/day). Intranasal PZ6005 treatment induce weight loss in a dose-dependent manner, as assessed by significant differences in weight changes across groups. […] At the end of the experiment, mice in the highest dose of PZ6005 treatment had lost […] and those in the 1 mg treatment had lost […], whereas control littermates maintained at 3.57±1.28% of body weight (FIG. 10a).
To determine the influence of intranasal PZ6005-mediated attenuated neurofibrosis on tissue-specific adiposity and body composition, peripheral tissues and fat mass of the mice were weighed following the 14-day administration. […] Moreover, the reduction in overall fat mass depended upon the doses of PZ6005.

[4] = control AAV-gScrambled AgRP-Cas9 mice
[5] = I.N. 1 mg/animal/day, 14 days, obese mice
[6] = I.N. highest dose (5 mg/animal/day), 14 days, obese mice

Q: Which “positive metabolic outcomes of treatment” value ([1]; AAV-IR AgRP-Cas9 mice (AgRP insulin receptor disrupted)) does the source give for `CC(=O)NC1C(OC(C)=O)OC(COC(C)=O)[C@@H](F)C1OC(C)=O` (some centres unmarked) [fluorosamine, per-O-acetylated-4-F-N-acetylglucosamine] here?
A: Its value is “mitigated, at least in part”.

Q: What about the adiposity [1, 4] of the same compound?
A: Its adiposity is “reduced adiposity”.

Q: What about the body weight [1, 4] of the same compound?
A: Its body weight is “promoted weight loss”.

Q: And the caloric intake [1, 4]?
A: Its caloric intake is “attenuated caloric intake”.

Q: What about the energy expenditure [1, 4] of the same compound?
A: The energy expenditure was “enhanced energy expenditure independently of ambulatory activity”.

Q: And the glycaemic control [1, 4]?
A: The glycaemic control was “improved glycaemic control”.

Q: And the “ARC pAKT +ve. cells (insulin receptor signalling)” value [2]?
A: Its value is “robust increase”.

Q: What about the “body weight lost at the end of the experiment” value [3, 5] of the same compound?
A: Its value is 16.32±1.41%.

Q: What about the “mass of epiWAT, BAT and liver” value [3, 5] of the same compound?
A: The value was “decreased”.

Q: And the “post-treatment fat mass decrease compared to pre-treatment mass” value [3, 5]?
A: Its value is 12.59±2.29%.

Q: What about the “day from which weight was robustly decreased” value ([3]; I.N. 1 mg/animal/day, obese mice) of the same compound?
A: The value was 7 days.

Q: And the “day on which 5 mg treatment began to significantly reduce more weight than 1 mg treatment” value ([3]; I.N. 5 mg vs 1 mg/animal/day, persisted to day 14)?
A: The value was 9 days.

Q: And the “post-treatment fat mass decrease compared to pre-treatment mass” value ([3]; I.N. 5 mg/animal/day, 14 days, obese mice)?
A: The value was 23.21±9.27%.

Q: And the “day from which weight was robustly decreased” value ([3]; I.N. 5 mg/animal/day, obese mice)?
A: The value was 3 days.

Q: And the “body weight lost at the end of the experiment” value [3, 6]?
A: The value was 6.36±0.88%.

Q: And the “tissue mass (adipose tissues and liver)” value [3, 6]?
A: Its value is “remarkedly reduced tissue mass”.

Q: What about the whole-body metabolic improvements ([3]; intranasal, 14 days, diet-induced obese mice, compared with I.C.V. delivery) of the same compound?
A: The whole-body metabolic improvements was “recapitulated the whole-body metabolic improvements observed with intracerebroventricular delivery”.

— patent US20260174677A1, “METHODS OF TREATING INSULIN RESISTANCE AND ASSOCIATED DISORDERS” (The University of Melboune, priority 2022, published 2026)
